What follows are molecules tested against MDR1 (P-glycoprotein, ABCB1) (Homo sapiens, UniProt P08183) (assay: TP_TRANSPORTER: ATP hydrolysis in membranes from MDR1-expressing insect cells).
Type: functional, cell membranes, insect cell, Membrane

MDR1 (P-glycoprotein, ABCB1), sequence (P08183 whole entry): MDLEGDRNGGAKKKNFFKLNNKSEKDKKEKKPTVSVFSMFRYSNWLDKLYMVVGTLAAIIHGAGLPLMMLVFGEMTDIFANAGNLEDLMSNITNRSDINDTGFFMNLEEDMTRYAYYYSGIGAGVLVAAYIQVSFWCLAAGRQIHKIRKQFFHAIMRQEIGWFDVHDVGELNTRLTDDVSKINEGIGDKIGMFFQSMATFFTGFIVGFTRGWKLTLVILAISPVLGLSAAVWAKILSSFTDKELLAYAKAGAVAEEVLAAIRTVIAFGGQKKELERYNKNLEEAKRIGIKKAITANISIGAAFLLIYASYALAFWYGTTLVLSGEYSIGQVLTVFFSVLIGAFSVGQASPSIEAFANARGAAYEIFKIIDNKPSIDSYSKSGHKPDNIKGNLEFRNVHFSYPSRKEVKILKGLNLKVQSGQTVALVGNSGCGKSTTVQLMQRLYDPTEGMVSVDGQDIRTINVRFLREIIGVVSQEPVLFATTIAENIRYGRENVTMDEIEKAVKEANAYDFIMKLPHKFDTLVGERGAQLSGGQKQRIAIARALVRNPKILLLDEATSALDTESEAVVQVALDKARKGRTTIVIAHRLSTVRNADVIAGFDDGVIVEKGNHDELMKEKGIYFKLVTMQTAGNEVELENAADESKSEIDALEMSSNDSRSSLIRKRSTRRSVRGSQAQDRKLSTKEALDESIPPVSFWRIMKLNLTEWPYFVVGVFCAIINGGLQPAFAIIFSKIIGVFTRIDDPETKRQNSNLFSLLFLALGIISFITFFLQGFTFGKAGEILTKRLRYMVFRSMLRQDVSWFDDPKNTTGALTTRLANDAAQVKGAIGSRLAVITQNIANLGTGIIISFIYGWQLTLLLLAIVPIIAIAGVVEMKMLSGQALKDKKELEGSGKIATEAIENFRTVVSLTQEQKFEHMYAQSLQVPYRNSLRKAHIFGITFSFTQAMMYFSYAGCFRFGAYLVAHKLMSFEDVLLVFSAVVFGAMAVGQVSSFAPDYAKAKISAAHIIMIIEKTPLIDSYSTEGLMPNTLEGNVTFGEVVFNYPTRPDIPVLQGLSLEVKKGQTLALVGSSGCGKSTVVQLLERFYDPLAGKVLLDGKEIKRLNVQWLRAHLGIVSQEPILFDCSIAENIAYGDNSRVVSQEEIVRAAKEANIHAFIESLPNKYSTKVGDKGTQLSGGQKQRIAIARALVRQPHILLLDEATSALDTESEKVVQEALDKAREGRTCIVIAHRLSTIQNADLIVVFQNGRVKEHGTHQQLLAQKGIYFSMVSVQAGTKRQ

Row | Km [µM] | Compound
1 | 27.4 | CN(C)CCCN1c2ccccc2Sc2ccc(Cl)cc21 [CHLORPROMAZINE]
2 | 33 | O=C(CCCN1CCC(O)(c2ccc(Cl)cc2)CC1)c1ccc(F)cc1 [HALOPERIDOL]

Row | Compound | Km [µM]
3 | Cc1cc2c(s1)Nc1ccccc1N=C2N1CCN(C)CC1 [OLANZAPINE] | 8.3

From ChEMBL document CHEMBL2074534, “In vitro P-glycoprotein affinity for atypical and conventional antipsychotics” (Life Sci, 2002)
